Experimental findings from patent US12338256B2, “Aza-tetracyclic oxazepine compounds and uses thereof” (Genentech, Inc., priority 2022, dated 2025) are described below.

Assay [1] has as its system HPAC (homozygous mutant KRAS G12D human pancreatic cell line). As to the kind of experiment: KRAS 3D-Cell Proliferation Assay, HPAC (Example 503). It is filed as cell-based. The following applies: Homo sapiens, 168 h, HPAC 3D culture, 7 days, CellTiter-Glo 3D, read-out: Prolif HPAC 3D ATP IC50. A digest of the protocol: (§1)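 Luminescent ATP readout (CellTiter-Glo 3D, with mechanical mixing) measures growth of cells cultured in 3D after a 7-day compound exposure at 37° C. Percent inhibition is referenced to vehicle (DMSO) and 1 μM staurosporine controls, and IC50 comes from a four-parameter Hill fit.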

Assay [2] relates to H1975 (KRAS wild type human lung adenocarcinoma cell line). As to the kind of experiment: KRAS 3D-Cell Proliferation Assay, H1975 (Example 503). It is filed as cell-based. The following applies: Homo sapiens, NCI-H1975, 168 h, H1975 3D culture, 7 days, CellTiter-Glo 3D; read-out: Prolif H1975 3D ATP IC50. A digest of the protocol: as §1

Read-outs that look alike come from different tables or passages of the source.

Consider `C[C@@H]1Oc2nc(-c3cc(N)c(F)c(C4CC4)c3C(F)(F)F)c(F)c3nc(OC[C@@H]4CC[C@H]5COCCN54)nc(c23)N2C[C@H]3CC[C@H](N3)[C@@H]12` [Compound 233, 3-Cyclopropyl-2-fluoro-5-((5S,5aS,6S,9R)-1-fluoro-12-(((6S,8aS)-hexahydro-1H-pyrrolo[2,1-c][1,4]oxazin-6-yl)methoxy)-5-methyl-5a,6,7,8,9,10-hexahydro-5H-4-oxa-3,10a,11,13,14-pentaaza-6,9-methanonaphtho[1,8-ab]heptalen-2-yl)-4-(trifluoromethyl)aniline], for which the results for the IC50 in assay [1] (HPAC) and in assay [2] were 2000 nM and 5400 nM, respectively.

For `Cc1c(F)c(N)cc(-c2nc3c4c(nc(OC[C@@]56CCCN5C[C@H](F)C6)nc4c2F)N2C[C@H]4CC[C@H](NC4)[C@H]2CO3)c1C(F)(F)F` [Compound 236, 2-Fluoro-5-((5aS,6S,9S)-1-fluoro-12-(((2R,7aS)-2-fluorotetrahydro-1H-pyrrolizin-7a(5H)-yl)methoxy)-5a,6,7,8,9,10-hexahydro-5H-4-oxa-3,10a,11,13,15-pentaaza-6,9-ethanonaphtho[1,8-ab]heptalene-2-yl)-3-methyl-4-(trifluoromethyl)aniline], the values for the IC50 in assay [1] (HPAC) and in assay [2] were 2000 nM and 14500 nM, respectively.

For the compound `Cc1c(F)c(N)cc(-c2nc3c4c(nc(OC[C@@]56CCCN5C[C@H](F)C6)nc4c2F)N2C[C@H]4CC[C@H](N4)[C@H]2C(CF)O3)c1C(F)(F)F` (stereo partly drawn) [Compound 239, 2-Fluoro-5-((5aS,6S,9R)-1-fluoro-5-(fluoromethyl)-12-(((2R,7aS)-2-fluorotetrahydro-1H-pyrrolizin-7a(5H)-yl)methoxy)-5a,6,7,8,9,10-hexahydro-5H-4-oxa-3,10a,11,13,14-pentaaza-6,9-methanonaphtho[1,8-ab]heptalen-2-yl)-3-methyl-4-(trifluoromethyl)aniline], the IC50 in assay [1] (HPAC) was determined as 33.4 nM; in assay [2], 569 nM.

Consider `Cc1c(Cl)c(N)cc(-c2nc3c4c(nc(OC[C@@]56CCCN5C[C@H](F)C6)nc4c2Cl)N2C[C@H]4CC[C@H](N4)[C@H]2[C@H](C)O3)c1C(F)(F)F` [Compound 241, 2-Chloro-5-((5S,5aS,6S,9R)-1-chloro-12-(((2R,7aS)-2-fluorotetrahydro-1H-pyrrolizin-7a(5H)-yl)methoxy)-5-methyl-5a,6,7,8,9,10-hexahydro-5H-4-oxa-3,10a,11,13,14-pentaaza-6,9-methanonaphtho[1,8-ab]heptalen-2-yl)-3-methyl-4-(trifluoromethyl)aniline], for which the IC50 came to 16.2 nM in assay [1] (HPAC) and 1200 nM in assay [2].

As for `Cc1c(F)c(N)cc(-c2nc3c4c(nc(OC[C@@]56CCCN5C[C@H](F)C6)nc4c2F)N2C[C@H]4CC[C@H](N4)[C@H]2[C@H](C(F)(F)F)O3)c1CC(F)F` [Compound 250, 4-(2,2-Difluoroethyl)-2-fluoro-5-((5R,5aS,6S,9R)-1-fluoro-12-(((2R,7aS)-2-fluorotetrahydro-1H-pyrrolizin-7a(5H)-yl)methoxy)-5-(trifluoromethyl)-5a,6,7,8,9,10-hexahydro-5H-4-oxa-3,10a,11,13,14-pentaaza-6,9-methanonaphtho[1,8-ab]heptalene-2-yl)-3-methylaniline], the IC50 in assay [1] (HPAC) is 16.9 nM; in assay [2], 994 nM.

Consider `Cc1nc(N)c(F)c(-c2nc3c4c(nc(OC[C@@]56CCCN5C[C@H](F)C6)nc4c2F)N2C[C@H]4CC[C@H](N4)[C@H]2[C@H](C(F)(F)F)O3)c1C(F)(F)F` [Compound 256, 3-Fluoro-4-((5R,5aS,6S,9R)-1-fluoro-12-(((2R,7aS)-2-fluorotetrahydro-1H-pyrrolizin-7a(5H)-yl)methoxy)-5-(trifluoromethyl)-5a,6,7,8,9,10-hexahydro-5H-4-oxa-3,10a,11,13,14-pentaaza-6,9-methanonaphtho[1,8-ab]heptalen-2-yl)-6-methyl-5-(trifluoromethyl)pyridin-2-amine], for which the IC50 was determined as 13.9 nM in assay [1] and 93.4 nM in assay [2].

Regarding `Cc1c(F)c(N)cc(-c2nc3c4c(nc(OCC5(CN6CC6(C)C)CC5)nc4c2F)N2C[C@H]4CC[C@H](N4)[C@H]2[C@H](C)O3)c1C(F)(F)F` (stereo partly drawn) [Compound 259, 5-((5S,5aS,6S,9R)-12-((1-((2,2-Dimethylaziridin-1-yl)methyl)cyclopropyl)methoxy)-1-fluoro-5-methyl-5a,6,7,8,9,10-hexahydro-5H-4-oxa-3,10a,11,13,14-pentaaza-6,9-methanonaphtho[1,8-ab]heptalen-2-yl)-2-fluoro-3-methyl-4-(trifluoromethyl)aniline], the values for the IC50 in assay [1] (HPAC) and in assay [2] were 12.3 nM and 1970 nM, respectively.

On to `C[C@@H]1Oc2nc(-c3cc(N)nc(C(F)F)c3C(F)(F)F)c(F)c3nc(OC[C@@]45CCCN4C[C@H](F)C5)nc(c23)N2C[C@H]3CC[C@H](N3)[C@@H]12` [Compound 260, 6-(Difluoromethyl)-4-((5S,5aS,6S,9R)-1-fluoro-12-(((2R,7aS)-2-fluorotetrahydro-1H-pyrrolizin-7a(5H)-yl)methoxy)-5-methyl-5a,6,7,8,9,10-hexahydro-5H-4-oxa-3,10a,11,13,14-pentaaza-6,9-methanonaphtho[1,8-ab]heptalen-2-yl)-5-(trifluoromethyl)pyridin-2-amine], for which the IC50 in assay [1] (HPAC) worked out at 41.5 nM; in assay [2], 3250 nM.

For `Cc1nc(N)cc(-c2nc3c4c(nc(OCC56C[C@@H](F)CN5C[C@H](F)C6)nc4c2F)N2C[C@H]4CC[C@H](N4)[C@H]2[C@H](C(F)(F)F)O3)c1C(F)(F)F` [Compound 261, 4-((5R,5aS,6S,9R)-12-(((2R,6R)-2,6-Difluorotetrahydro-1H-pyrrolizin-7a(5H)-yl)methoxy)-1-fluoro-5-(trifluoromethyl)-5a,6,7,8,9,10-hexahydro-5H-4-oxa-3,10a,11,13,14-pentaaza-6,9-methanonaphtho[1,8-ab]heptalen-2-yl)-6-methyl-5-(trifluoromethyl)pyridin-2-amine], the values for the IC50 in assay [1] (HPAC) and in assay [2] were 107 nM and 6100 nM, respectively.

Regarding `Cc1nc(N)cc(-c2nc3c4c(nc(OCC5(CN6CC7CC(C6)O7)CC5)nc4c2F)N2C[C@H]4CC[C@H](N4)[C@H]2[C@H](C)O3)c1C(F)(F)F` [Compound 265, 4-((5S,5aS,6S,9R)-12-((1-((6-oxa-3-azabicyclo[3.1.1]heptan-3-yl)methyl)cyclopropyl)methoxy)-1-fluoro-5-methyl-5a,6,7,8,9,10-hexahydro-5H-4-oxa-3,10a,11,13,14-pentaaza-6,9-methanonaphtho[1,8-ab]heptalene-2-yl)-6-methyl-5-(trifluoromethyl)pyridin-2-amine], the IC50 in assay [1] (HPAC) came out at 2.24 nM; in assay [2], 6240 nM.

For `Cc1nc(N)cc(-c2nc3c4c(nc(OCC5(CN6CC[C@H]7OCC[C@H]76)CC5)nc4c2F)N2C[C@H]4CC[C@H](N4)[C@H]2[C@H](C)O3)c1C(F)(F)F` [Compound 268, 4-((5S,5aS,6S,9R)-1-fluoro-12-((1-(((3aR,6aR)-hexahydro-4H-furo[3,2-b]pyrrol-4-yl)methyl)cyclopropyl)methoxy)-5-methyl-5a,6,7,8,9,10-hexahydro-5H-4-oxa-3,10a,11,13,14-pentaaza-6,9-methanonaphtho[1,8-ab]heptalene-2-yl)-6-methyl-5-(trifluoromethyl)pyridin-2-amine], the results for the IC50 in assay [1] (HPAC) and in assay [2] were 2.17 nM and 1700 nM, respectively.

For the compound `COCC1(F)CCN(CC2(COc3nc4c5c(nc(-c6cc(N)nc(C)c6C(F)(F)F)c(F)c5n3)O[C@@H](C)[C@@H]3[C@@H]5CC[C@H](CN43)N5)CC2)C1` (stereo partly drawn) [Compound 270, 4-((5S,5aS,6S,9R)-1-fluoro-12-((1-((3-fluoro-3-(methoxymethyl)pyrrolidin-1-yl)methyl)cyclopropyl)methoxy)-5-methyl-5a,6,7,8,9,10-hexahydro-5H-4-oxa-3,10a,11,13,14-pentaaza-6,9-methanonaphtho[1,8-ab]heptalen-2-yl)-6-methyl-5-(trifluoromethyl)pyridin-2-amine], the IC50 in assay [1] (HPAC) was 2.52 nM; in assay [2] it was 2480 nM.

For the compound `COC1(C(F)F)CN(CC2(COc3nc4c5c(nc(-c6cc(N)nc(C)c6C(F)(F)F)c(F)c5n3)O[C@@H](C)[C@@H]3[C@@H]5CC[C@H](CN43)N5)CC2)C1` [Compound 271, 4-((5S,5aS,6S,9R)-12-((1-((3-(difluoromethyl)-3-methoxyazetidin-1-yl)methyl)cyclopropyl)methoxy)-1-fluoro-5-methyl-5a,6,7,8,9,10-hexahydro-5H-4-oxa-3,10a,11,13,14-pentaaza-6,9-methanonaphtho[1,8-ab]heptalene-2-yl)-6-methyl-5-(trifluoromethyl)pyridin-2-amine], the IC50 worked out at 4.49 nM in assay [1] (HPAC) and 10900 nM in assay [2].

On to `COC1(CF)CN(CC2(COc3nc4c5c(nc(-c6cc(N)nc(C)c6C(F)(F)F)c(F)c5n3)O[C@@H](C)[C@@H]3[C@@H]5CC[C@H](CN43)N5)CC2)C1` [Compound 272], for which the IC50 in assay [1] (HPAC) came out at 4.58 nM; in assay [2], 5480 nM.

With `COC1(C)CN(CC2(COc3nc4c5c(nc(-c6cc(N)nc(C)c6C(F)(F)F)c(F)c5n3)O[C@@H](C)[C@@H]3[C@@H]5CC[C@H](CN43)N5)CC2)C1` [Compound 273, 4-((5S,5aS,6S,9R)-1-fluoro-12-((1-((3-methoxy-3-methylazetidin-1-yl)methyl)cyclopropyl)methoxy)-5-methyl-5a,6,7,8,9,10-hexahydro-5H-4-oxa-3,10a,11,13,14-pentaaza-6,9-methanonaphtho[1,8-ab]heptalene-2-yl)-6-methyl-5-(trifluoromethyl)pyridin-2-amine], the IC50 in assay [1] (HPAC) was determined as 6.53 nM; in assay [2], 3190 nM.
